Experimental data published in patent US20110142914A1, “INHALABLE COMPOSITIONS HAVING ENHANCED BIOAVAILABILITY” (CYTOTECH LABS, LLC, priority 2007, published 2011).

System: IL-12
Assay: Inflammatory response to pulmonary administration: BAL supernatant ELISA for IL-12 elevation
Assay type: in vivo
Conditions: mice
Method: Inflammatory response to the administration of CoQ10 (or the liposomal concentrate of CoQ10 produced in Example 1 above) to the lungs. Surgery is performed on sacrificed mice to expose the pleural cavity and trachea at the throat. […] An aliquot (about 0.75 mL) of phosphate buffered saline is instilled through the cannula into the lungs and removed to wash the bronchial and alveolar surfaces. This process is repeated for a total of three washes. The phosphate buffered saline containing cells is placed into centrifuge vials and centrifuged at about 3000 rpm (MiniSpin Plus, Eppendorf International, Hamburg, Del.). The supernatant is removed leaving the collected cells in the pellet. The supernatant from the BAL (Bronchoalveolar Lavage) is analyzed by enzyme-linked immunosorbent assay (ELISA) for IL-12 elevation (n=2 per sample tested).

inflammation of the lung: not a cause of inflammation of the lung | rise in IL-12 levels (BAL supernatant, ELISA) (n=2 per sample tested): not connected to a rise in IL-12 levels
Structure (SMILES): COC1=C(OC)C(=O)C(C/C=C(\C)CC/C=C(\C)CC/C=C(\C)CC/C=C(\C)CC/C=C(\C)CC/C=C(\C)CC/C=C(\C)CC/C=C(\C)CC/C=C(\C)CCC=C(C)C)=C(C)C1=O [CoQ10, Coenzyme Q10]
